# How the values were obtained:
# [1] = system: Raw 264.7 cells infected with H37Rv-GFP; assay: microbe, parasite or virus in culture; type: cell-based, M. tuberculosis; conditions: Mycobacterium tuberculosis, H37RV, 120 h; read-out: QIM (MIC50)
# [2] = system: M. tuberculosis H37Rv expressing the green fluorescent protein (H37Rv-GFP); assay: microbe, parasite or virus in culture; type: cell-based; conditions: Mycobacterium tuberculosis, H37RV, 120 h; read-out: QUM (MIC50)
SMILES,MIC50 [1] [µM],MIC50 [2] [µM]
O=C(Nc1ccc(-c2ccc(F)nc2)cc1)c1cc2sc(NCCN3CCOCC3)nc2s1 [Compound 288],< 1,< 1
CN(CCO)c1nc2sc(C(=O)Nc3ccc(-c4ccn(C)n4)cc3)cc2s1 [Compound 275],< 1,1 to 20
O=C(Nc1ccc(-c2ccc(F)cn2)cc1)c1cc2sc(N3CCNCC3)nc2s1 [Compound 315],< 1,1 to 20
CN(CC(O)C(F)(F)F)c1nc2sc(C(=O)Nc3ccc(-c4ccc(F)nc4)cc3)cc2s1 (stereo not drawn) [Compound 339],< 1,< 1
O=C(Nc1ccc(-c2ccc(F)cn2)cc1)c1cc2sc(NCCCN3CCOCC3)nc2s1 [Compound 328],< 1,< 1
O=C(Nc1ccc(N2CCC(Oc3ccc(F)cc3)CC2)cc1)c1cc2sc(NCCN3CCOCC3)nc2s1 [Compound 295],> 20,> 20
Cc1nc2cc(NC(=O)c3cc4sc(N5CCC(N)CC5)nc4s3)ccc2o1 [Compound 234],< 1,1 to 20
COc1ccc(CNc2nc3sc(C(=O)Nc4ccc5oc(C)nc5c4)cc3s2)cc1 [Compound 239],< 1,1 to 20
O=C(O)c1ccc(NC(=O)c2cc3nc(N4CCCCC4)sc3s2)cc1 [Compound 19],> 20,1 to 20
Cc1nc2cc(NC(=O)c3cc4sc(N5CC[C@H](C(=O)N(C)C)C5)nc4s3)ccc2o1 [Compound 215],< 1,< 1
CN(C)C(=O)[C@H]1CCN(c2nc3sc(C(=O)Nc4ccc(-c5ccc(F)nc5)cc4)cc3s2)C1 [Compound 298],< 1,< 1
Cc1nc2cc(NC(=O)c3cc4sc(N(CCO)C(C)C)nc4s3)ccc2o1 [Compound 232],< 1,1 to 20
CN(C)C(=O)C1CCN(c2nc3sc(C(=O)Nc4ccc(-c5nn(C)cc5F)cc4)cc3s2)CC1 [Compound 228],< 1,< 1
CC(C)(C)CC(=O)NC1CCN(c2nc3sc(C(=O)Nc4ccc(-c5ccc(F)nc5)cc4)cc3s2)CC1 [Compound 348],< 1,> 20
O=C(O)c1ccc(NC(=O)c2cc3sc(N4CCCCC4)nc3s2)cc1 [Compound 51],1 to 20,1 to 20
CN(C)C(=O)CC1CCN(c2nc3sc(C(=O)Nc4ccc(F)cc4)cc3s2)C1 (stereo not drawn) [Compound 332],< 1,< 1
CN(CCO)c1nc2sc(C(=O)Nc3ccc4oc(CCc5ccc(F)cc5)nc4c3)cc2s1 [Compound 252],< 1,1 to 20

SMILES,MIC50 [1] [µM],MIC50 [2] [µM]
O=C(Nc1ccc(N2CCC(Oc3ccc(F)cc3)CC2)cc1)c1cc2sc(N3CCOCC3)nc2s1 [Compound 220],< 1,> 20
COCCN(c1nc2sc(C(=O)Nc3ccc4oc(C)nc4c3)cc2s1)C1CC1 [Compound 270],> 20,> 20
O=C(Nc1ccc(-c2ccc(F)cn2)cc1)c1cc2sc(NCC(O)C(F)(F)F)nc2s1 (stereo not drawn) [Compound 340],< 1,1 to 20
CC1CCN(c2ccc(NC(=O)c3cc4sc(N5CCNCC5)nc4s3)cc2)CC1 [Compound 344],< 1,1 to 20
Cc1nc2cc(NC(=O)c3cc4sc(N(C)CCCO)nc4s3)ccc2o1 [Compound 238],< 1,1 to 20
CN(C)C(=O)CC1CCN(c2nc3sc(C(=O)Nc4ccc(F)cc4)cc3s2)CC1 [Compound 331],< 1,< 1
O=C(Nc1ccc(F)cn1)c1cc2sc(N3CCNCC3)nc2s1 [Compound 342],< 1,1 to 20
O=C(Nc1ccc(F)cn1)c1cc2sc(N3CCOCC3)nc2s1 [Compound 105],< 1,1 to 20
O=C(Nc1ccc(-c2ccc(F)nc2)cc1)c1cc2sc(NCC(O)C(F)(F)F)nc2s1 (stereo not drawn) [Compound 341],< 1,1 to 20
Cc1ccc(-c2ccc(NC(=O)c3cc4sc(N5CCNCC5)nc4s3)cc2)nc1 [Compound 346],< 1,1 to 20
Cc1nc2cc(NC(=O)c3cc4sc(NCCCN5CCOCC5)nc4s3)ccc2o1 [Compound 296],< 1,1 to 20
O=C(Nc1ccc(Oc2ccc(Cl)cc2)cc1)c1cc2sc(N3CCNCC3)nc2s1 [Compound 345],< 1,1 to 20
O=C(Nc1ccc(F)cc1)c1cc2sc(NCC(O)C(F)(F)F)nc2s1 (stereo not drawn) [Compound 330],< 1,1 to 20
Cc1ccc(-c2ccc(NC(=O)c3cc4sc(NCCN5CCOCC5)nc4s3)cc2)nc1 [Compound 260],< 1,1 to 20
Cc1ccc(-c2ccc(NC(=O)c3cc4sc(N(C)C)nc4s3)cc2)cn1 [Compound 240],< 1,> 20
Cc1ccc(-c2ccc(NC(=O)c3cc4sc(N5CCC(C(=O)N(C)C)CC5)nc4s3)cc2)cn1 [Compound 204],< 1,< 1

# — patent US11279714B2, “Anti-infective compounds” (priority 2014, dated 2022)
